From patent US10577349B2 (Sanford Burnham Prebys Medical Discovery Institute, priority 2015, dated 2020) come the findings set out here.

≈ marks a conversion by molar mass, not a printed value. Read-outs that look alike come from different tables or passages of the source.

Data set [1] is described as follows: Aqueous Solubility in pION's buffer. Format: physicochemical.
Data set [2] in a line: Aqueous Solubility in 1xPBS, pH 7.4. Format: physicochemical. Conditions: pH 7.4, aqueous buffer.
A further data set can be described thus: PAMPA Permeability. Format: in vitro ADME.
Data set [3] can be described thus: Hepatic Microsome Stability Mouse. It counts as in vitro ADME.
The nature of data set [4]: Hepatic Microsome Stability Human. It counts as in vitro ADME.
The subject of the next data set is A375. Nature of the data set: 48 h Cytotoxicity A375. Format: cell-based. Conditions: Homo sapiens, A-375.
The target in data set [5] is EmCV Cap-dependent translation. The experiment in a line: In vitro translation assay, FF-EmCV-Ren construct, cap-dependent (FF luciferase). It counts as biochemical, rabbit reticulocyte lysates. The gist of the method:
(§1)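 First, reticulocyte lysate mixed 1:1 with -Met and -Leu translation mixes is exposed to compound for 1 h at room temperature. Next, 0.1 μg reporter RNA is added and translation runs 2 h at 30° C. Finally, sequential Dual-Glo reagents give firefly then Renilla luminescence.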

The target in data set [6] is EmCV Cap-independent translation. The experiment in a line: In vitro translation assay, FF-EmCV-Ren construct, cap-independent (Ren luciferase). It counts as biochemical, rabbit reticulocyte lysates. The essentials: as §1
In data set [7] the target is HCV cap-dependent translation. Nature of the data set: In vitro translation assay, FF-HCV-Ren construct, cap-dependent (FF luciferase). Format: biochemical, rabbit reticulocyte lysates. The essentials:
as §1

Data set [8] addresses HCV cap-independent translation. The experiment in a line: In vitro translation assay, FF-HCV-Ren construct, cap-independent (Ren luciferase). Format: biochemical, rabbit reticulocyte lysates. The gist of the method:
as §1

The next data set relates to A375 tumors. Nature of the data set: A375 xenograft in nude mice. It counts as in vivo. On the procedure: All animal studies were conducted in the SBMRI Animal Facility in accordance with the Institutional Animal Care and Use Committee guidelines. Six-week-old female nu/nu mice were purchased Harlan Laboratories (Indianapolis, Ind.) and allowed to acclimatize for 1 week. A375 cells (1×10^6, suspended in 200 μL sterile PBS) were injected into subcutaneous flank tissue. When the xenograft size reached ˜250 mm^3, mice were sorted into different groups. For PLX4720 and Compound 38 combination experiments, mice were either fed PLX4720-containing chow alone (AIN76A Roden Diet with 417 mg PLX4720/kg from Open Source Diets) for the control group or PLX4 720-containing chow plus an IP injection of 1 mg/kg Compound 38 twice a week. For MEKi plus Compound 38 experiments, PD0325901 at 20 mg/kg (formulated in 0.5% hydroxypropyl methylcellulose plus 0.2% Tween-80) was administered by oral gavage twice a week (Monday and Thursday) for the control group, or PD035901 plus IP injection of 1 mg/kg Compound 38 was administered twice a week (Tuesday and Friday). Mice were maintained in a pathogen-free environment with free access to food. Body weight and tumor volume were measured twice a week. Tumor size was measured with linear calipers and calculated using the formula: ([length in millimeters×(width in millimeters)2]/2). Mice were sacrificed after 4 weeks and tumors were fixed in Z-Fix (Anatech, Battle Creek, Mich.) and embedded in paraffin for immunohistochemistry.
A375 human melanomacells were injected subcutaneously (1×10^6) into the flank of nude mice and allowed to form established tumors. Once tumors reached approximately 250 mm3, mice were randomly grouped and subjected to the indicated treatments [chow containing PLX4720 (417 mg/kg) and/or Compound 38 (1 mg/kg, 2 times per week intraperitoneally)]. Tumor size was measured at the indicated time points. The experiment was repeated twice. […] When tumors were allowed to reach 500 mm^3 before initiating treatment, 5 of 7 […] mice subjected to BRAFi treatment alone relapsed as drug-resistant tumors (4/5 within 4-6 weeks), whereas only 3 of 6 (50%) subjected to combination treatment developed resistance, albeit more slowly (2/3 after 8 weeks; FIG. 22). […] Proteins prepared at the indicated times from A375 tumors that were subjected in vivo to treatment with Compound 38 were incubated with m^7GTP-beads to capture the eIF4F complex. Shown is time-dependent inhibition of eIF4G1 binding to eIF4E in vivo, concomitant with increased binding of inhibitory 4E-BP1 to eIF4E.

In another data set the target is T1, eIF4F complex (Mus musculus, UniProt Q6NZJ6).
T1 construct: endogenous in cells; host or cells: WT and 4E-BP1/2 double-knock-out MEFs
T1 sequence (Q6NZJ6 whole entry, one chain of several): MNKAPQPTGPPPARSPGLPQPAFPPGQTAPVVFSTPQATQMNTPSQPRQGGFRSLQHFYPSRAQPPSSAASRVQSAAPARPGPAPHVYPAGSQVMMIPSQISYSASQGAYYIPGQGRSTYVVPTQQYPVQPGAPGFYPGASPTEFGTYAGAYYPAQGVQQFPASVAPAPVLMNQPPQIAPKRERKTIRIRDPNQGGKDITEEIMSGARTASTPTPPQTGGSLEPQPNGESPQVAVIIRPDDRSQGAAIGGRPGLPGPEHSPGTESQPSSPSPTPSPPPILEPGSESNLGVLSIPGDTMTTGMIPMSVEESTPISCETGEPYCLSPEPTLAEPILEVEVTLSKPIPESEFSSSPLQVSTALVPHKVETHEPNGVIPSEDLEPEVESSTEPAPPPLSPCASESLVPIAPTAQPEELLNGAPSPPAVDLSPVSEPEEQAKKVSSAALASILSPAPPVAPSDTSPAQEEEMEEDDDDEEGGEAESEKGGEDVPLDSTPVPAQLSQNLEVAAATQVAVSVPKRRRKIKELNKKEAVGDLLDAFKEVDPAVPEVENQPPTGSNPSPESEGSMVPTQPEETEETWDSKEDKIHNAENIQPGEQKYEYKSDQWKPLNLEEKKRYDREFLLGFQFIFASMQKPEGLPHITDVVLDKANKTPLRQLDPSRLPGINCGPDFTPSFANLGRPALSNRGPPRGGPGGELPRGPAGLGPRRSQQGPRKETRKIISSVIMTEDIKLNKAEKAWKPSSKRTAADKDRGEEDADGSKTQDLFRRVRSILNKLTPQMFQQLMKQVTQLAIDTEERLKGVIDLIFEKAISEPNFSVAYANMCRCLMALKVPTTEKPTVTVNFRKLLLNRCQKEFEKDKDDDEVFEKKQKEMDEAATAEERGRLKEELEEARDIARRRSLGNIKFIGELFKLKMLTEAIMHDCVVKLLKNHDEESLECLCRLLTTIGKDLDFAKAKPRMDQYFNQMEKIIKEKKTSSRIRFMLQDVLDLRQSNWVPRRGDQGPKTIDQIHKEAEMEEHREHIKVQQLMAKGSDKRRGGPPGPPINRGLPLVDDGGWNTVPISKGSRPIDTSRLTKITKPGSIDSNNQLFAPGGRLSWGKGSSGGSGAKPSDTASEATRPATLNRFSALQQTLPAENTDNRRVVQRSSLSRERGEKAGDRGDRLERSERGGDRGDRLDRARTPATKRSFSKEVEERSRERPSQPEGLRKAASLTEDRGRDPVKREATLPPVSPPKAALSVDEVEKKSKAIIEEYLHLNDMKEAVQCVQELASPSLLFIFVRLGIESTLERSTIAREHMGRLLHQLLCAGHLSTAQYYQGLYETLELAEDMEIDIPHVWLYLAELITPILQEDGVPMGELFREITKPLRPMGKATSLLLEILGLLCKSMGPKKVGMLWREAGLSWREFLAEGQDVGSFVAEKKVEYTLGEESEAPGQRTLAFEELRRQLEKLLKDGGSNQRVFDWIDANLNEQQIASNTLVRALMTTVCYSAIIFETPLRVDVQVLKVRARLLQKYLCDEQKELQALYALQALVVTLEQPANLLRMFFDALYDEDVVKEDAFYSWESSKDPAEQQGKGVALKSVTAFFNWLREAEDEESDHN
The experiment in a line: m7GTP pull-down assay, WT or 4E-BP DKO MEFs. Format: cell-based. Conditions: 6 hours, Torin1 250 nmol/L. On the procedure:
As previously described (Dowling R J, et al. mTORC1-mediated cell proliferation, but not cell growth, controlled by the 4E-BPs. Science. 2010; 328:1172-6), cells growing in 100 mm plates were washed (cold PBS), collected, and lysed in 50 mM MOPS/KOH (7.4), 100 mM NaCl, 50 mM NaF, 2 mM EDTA, 2 mM EGTA, 1% NP40, 1% Na-DOC, 7 mM β-mercaptoethanol, protease inhibitors and phosphatase inhibitor cocktail (Roche). Lysates were incubated with m7-GDP-agarose beads (Jena Bioscience) for 20 minutes, washed 4 times with the washing buffer containing 50 mM MOPS/KOH (7.4), 100 mM NaCl, 50 mM NaF, 0.5 mM EDTA, 0.5 mM EGTA, 7 mM (3-mercaptoethanol, 0.5 mM PMSF, 1 mM Na3VO4 and 0.1 mM GTP, and bound proteins were eluted by boiling the beads in loading buffer. m7-GDP-agarose pulled down material was analyzed by Western blot analysis.
Indicated cultures (WT or DKO 4E-BP) were treated with Torin1 (250 nmol/L) or indicated Compound 38 concentrations for 6 hours. Western blots show respective protein levels in total cell lysates or following pull-down using m^7GTP agarose beads. […] P3-Actin served as a loading control and to exclude contamination in m^7GTP pull-down.

Where [9] appears, read: aqueous buffer, pH 5.0, read-out: Aqueous Solubility in pION's buffer pH 5.0.
The mark [10] stands for this setting: pH 6.2, aqueous buffer, read-out: Aqueous Solubility in pION's buffer pH 6.2.
Where [11] appears, read: pH 7.4, aqueous buffer, read-out: Aqueous Solubility in pION's buffer pH 7.4.
The mark [12] stands for this setting: Donor pH 5.0, Acceptor pH 7.4, read-out: PAMPA Permeability, Pe, Donor pH 5.0.
The mark [13] stands for this setting: Donor pH 6.2, Acceptor pH 7.4, read-out: PAMPA Permeability, Pe, Donor pH 6.2.
The mark [14] stands for this setting: pH 7.4, Donor pH 7.4, Acceptor pH 7.4, read-out: PAMPA Permeability, Pe, Donor pH 7.4.

In general, solubility refers to the dissolved amount per volume that the medium holds. Take `O=C(/C=C/c1nc2ccccc2[nH]1)c1c(O)nc2ccc(Cl)cc2c1-c1ccccc1` [BI-69A11, reference compound]: the solubility came to 0.16 µg/mL (≈ 0.376 µM) in [1] (setting [9]), 0.24 µg/mL (≈ 0.564 µM) in data set [1] (setting [10]), 0.1 µg/mL (≈ 0.235 µM) in data set [1] (setting [11]) and 0.11 µg/mL (≈ 0.258 µM) in [2]. Further, the figures for the Papp in the data set “PAMPA Permeability” (setting [12]), in the data set “PAMPA Permeability” (setting [13]) and in the data set “PAMPA Permeability” (setting [14]) were 13 ×10⁻⁶ cm/s, 16 ×10⁻⁶ cm/s and 42 ×10⁻⁶ cm/s, respectively. Further, in [3], the “Hepatic Microsome Stability (% remaining at 1 Hr) Mouse” value was 48.54 % remaining. Besides, the “Hepatic Microsome Stability (% remaining at 1 Hr) Mouse (no NADPH)” value in data set [3] is 45.01 % remaining. Moreover, in [4], the “Hepatic Microsome Stability (% Remaining at 1 hr) Human” value is 68.24 % Remaining. The “Hepatic Microsome Stability (% Remaining at 1 hr) Human (no NADPH)” value in data set [4] stood at 61.74 % Remaining.
As usually defined, the IC50 is the concentration that gives 50% inhibition. Read a low IC50 as inhibition by little substance. Consider `O=C(/C=C/c1ccccc1)c1c(C2CCCCC2)c2cc(Cl)ccc2[nH]c1=O` [Compound 12, 6-chloro-3-cinnamoyl-4-cyclohexylquinolin-2(1H)-one], for which the IC50 in the data set with A375 is below 2 µM; in [5], 2 to 10 µM; in data set [6] it was 10 to 20 µM; in [7], 10 to 20 µM; in data set [8], above 20 µM. For the same molecule, the solubility in data set [1] (setting [9]) is 1.6 µg/mL (≈ 4.08 µM); in [1] (setting [10]) it was 1.4 µg/mL (≈ 3.57 µM); in [1] (setting [11]), 1.2 µg/mL (≈ 3.06 µM); in data set [2], 1.5 µg/mL (≈ 3.83 µM). Further, the Papp in “PAMPA Permeability” (setting [12]) turned out to be 1010 ×10⁻⁶ cm/s; in “PAMPA Permeability” (setting [13]), 301 ×10⁻⁶ cm/s; in the data set “PAMPA Permeability” (setting [14]) it was 379 ×10⁻⁶ cm/s. For the same molecule, in [3], the “Hepatic Microsome Stability (% remaining at 1 Hr) Mouse” value was 32.98 % remaining. Besides, the “Hepatic Microsome Stability (% remaining at 1 Hr) Mouse (no NADPH)” value in [3] amounted to 63.69 % remaining. Also, the “Hepatic Microsome Stability (% Remaining at 1 hr) Human” value in [4] was determined as 59.85 % Remaining. For the same molecule, the “Hepatic Microsome Stability (% Remaining at 1 hr) Human (no NADPH)” value in [4] was determined as 57.73 % Remaining.
Take `O=C(/C=C/c1nc2cc(Cl)ccc2[nH]1)c1c(-c2ccccc2)c2cc(Cl)ccc2[nH]c1=O` [Compound 62, 6-Chloro-3-[3-(5-chloro-1H-benzoimidazol-2-yl)-acryloyl]-4-phenyl-1H-quinolin-2-one]: the IC50 in the data set with A375 is below 2 µM; in [5], 2 to 10 µM; in data set [6], 2 to 10 µM; in [7] it was 2 to 10 µM; in data set [8], 2 to 10 µM. The solubility in data set [1] (setting [9]) stood at 0.34 µg/mL (≈ 0.739 µM); in [1] (setting [10]), 0.42 µg/mL (≈ 0.912 µM); in data set [1] (setting [11]), 0.12 µg/mL (≈ 0.261 µM); in data set [2], 0.11 µg/mL (≈ 0.239 µM). Also, the Papp in the data set “PAMPA Permeability” (setting [12]) is 29 ×10⁻⁶ cm/s; in “PAMPA Permeability” (setting [13]), 6.2 ×10⁻⁶ cm/s; in the data set “PAMPA Permeability” (setting [14]) it was 2.5 ×10⁻⁶ cm/s. Moreover, the “Hepatic Microsome Stability (% remaining at 1 Hr) Mouse” value in data set [3] worked out at 85.64 % remaining. Also, the “Hepatic Microsome Stability (% remaining at 1 Hr) Mouse (no NADPH)” value in data set [3] was found to be 82.96 % remaining. Moreover, the “Hepatic Microsome Stability (% Remaining at 1 hr) Human” value in data set [4] came out at 89.89 % Remaining. Moreover, in [4], the “Hepatic Microsome Stability (% Remaining at 1 hr) Human (no NADPH)” value was 54.66 % Remaining.
Take `O=C(/C(Br)=C\c1cncc(F)c1)c1c(-c2ccccc2)c2cc(Cl)ccc2[nH]c1=O` [Compound 111, 3-[(2E)-2-bromo-3-(5-fluoro(3-pyridyl))prop-2-enoyl]-6-chloro-4-phenylhydroquinolin-2-one]: the IC50 (in the data set on A375; in data set [5]; in data set [6]; in data set [7]; in [8]) was 2 to 10 µM in each case.
Turning to `Cc1ccnc(C#CC(=O)c2c(-c3ccccc3)c3cc(Cl)ccc3[nH]c2=O)c1` [Compound 112, 6-Chloro-3-[3-(4-methyl-pyridin-2-yl)-propynoyl]-4-phenyl-1H-quinolin-2-one], the IC50 (with A375; in data set [5]; in data set [6]; in [7]; in [8]) was above 20 µM in each case.
As to `O=C(/C=C/c1ccc(Cl)s1)c1c(-c2ccccc2)c2cc(Cl)ccc2[nH]c1=O` [Compound 113, 6-Chloro-3-[3-(5-chloro-thiophen-2-yl)-acryloyl]-4-phenyl-1H-quinolin-2-one], the half-maximal inhibitory concentration (IC50) (with A375; in data set [5]; in data set [6]; in [7]; in data set [8]) was 2 to 10 µM in each case.
For the molecule `Cc1ccc2[nH]c(/C=C/C(=O)c3c(-c4ccccc4)c4cc(Cl)cnc4[nH]c3=O)nc2c1` [Compound 114, (E)-6-chloro-3-(3-(5-methyl-1H-benzo[d]imidazol-2-yl)acryloyl)-4-phenyl-1,8-naphthyridin-2(1H)-one], the IC50 was 2 to 10 µM in the data set on A375; 2 to 10 µM in data set [5]; 10 to 20 µM in [6]; above 20 µM in data set [7]; 10 to 20 µM in data set [8].
Turning to `O=C(/C=C/c1cncc(Cl)c1)c1c(-c2ccccc2)c2cc(Cl)ccc2[nH]c1=O` [Compound 115, (E)-6-chloro-3-(3-(5-chloropyridin-3-yl)acryloyl)-4-phenylquinolin-2(1H)-one], the IC50 was below 2 µM in the data set on A375; 2 to 10 µM in [5]; 2 to 10 µM in data set [6]; 2 to 10 µM in data set [7]; 2 to 10 µM in [8].
Regarding `CCCS(=O)(=O)Nc1ccc(F)c(C(=O)c2c[nH]c3ncc(Cl)cc23)c1F` [PLX4720, reference compound], the “Growth of established tumors (~250 mm^3), BRAFi alone” value with A375 tumors (chow containing PLX4720 (417 mg/kg)) is “largely inhibited”. In addition, the “Tumors resumed growth, BRAFi-treated group” value in the data set with A375 tumors (treatment started at ~250 mm^3, PLX4720 chow) is given as 3/5.
As to `CCC(=O)N1CCN(c2ccc(-n3c(=O)ccc4cnc5ccc(-c6cnc7ccccc7c6)cc5c43)cc2C(F)(F)F)CC1` [torin1, reference compound], the “eIF4G1:eIF4E association (m7GTP pull-down)” value on eIF4F complex is on record as “induced dissociation of eIF4G1 from eIF4E in WT but not in 4E-BPDKOMEFs”.
